Reference: patent EP2082991A1, “Method of Water Treatment” (Thermphos Trading GmbH, priority 2008, dated 2009)
Like-named read-outs stand apart in the source and are kept apart here.

Experiments:
[1] = 22 hours at 90 °C, pH 5.5
Experimental: Brine/sea water compatibility.
This test assesses sea water compatibility of the phosphonates added at: 100; 1000; 10000; and 50000 ppm to North Sea water after 22 hours at 90 °C. Calcium left in solution is measured by ICP.
Test details are as follows: • prepare synthetic North Sea water at pH 5.5; • add the phosphonate at 100, 1000, 10000 and 50000 ppm active acid to the synthetic North Sea water solution; • prepare 5 blank solutions made by mixing the required amount of distilled water with North Sea water to obtain the same dilution as obtained by the addition of […], 1000, 10000 and 50000 ppm active acid phosphonate to the synthetic North Sea water solution; • the phosphonate samples with the respective phosphonates at the 4 concentrations as well as the 5 blanks are stored in an oven at 90 °C for a period of 22-24 hours; • upon completion of the test, the samples are observed visually; • after completion of the test, the pH values are being carefully monitored and 50 ml are drawn from each sample, filtered through a […] Millipore filter and stabilized at pH<2 by addition of 37 % aqueous hydrochloric acid; • Ca tolerance values are calculated as follows: % Ca tolerance = (Vi)/(V0) × 100 [formula] • where V0 = ppm Ca found in the blank solution; and • V1 = ppm Ca found in the solution with the phosphonate.

[2] = 1 % active acid phosphonate in synthetic North Sea water, pH 5.5, 140 °C, one week
Experimental: Thermal stability assessment.
This is a test to assess the thermal stability of phosphonates in the presence of synthetic North Sea water. The test is carried out by submitting mixtures of North Sea water and phosphonates stabilized at pH 5.5 to a one week heating at 140 °C. The thermal degradation is determined by ^31P NMR analysis.

[3] = minimum concentration for full scale inhibition; 22 hours at 90 °C, pH 6; tested at 15, 30, 50, 70 and 100 ppm
Experimental: Barium sulphate scale inhibition.
This is a static test to evaluate the efficiency of phosphonates in preventing barium and strontium scale inhibition in oil field scaling conditions. The test is carried out by determining the amount of BaSO4 and SrSO4 that has precipitated after 22 hours at 90 °C in a 50/50 mixture of synthetic North Sea water and Formation water containing the phosphonates to be tested at 5 different concentrations. The amount of soluble Ba and Sr ions is determined by ICP. The results stand for the minimum phosphonate concentration for 100 % barium sulphate scale inhibition or give the scale inhibition at 100 ppm loading of phosphonate.
Test details are as follows:
Synthetic North Sea water:
• synthetic North Sea and Formation water are prepared having a pH of 6. These water solutions are preheated at 90 °C before starting the test. […] Then add to this glass bottle 50 ml of Formation water; • also prepare one blank solution by mixing 50 ml of North Sea water with 50 ml of Formation water; • put the sample bottles in an oven for 22 hours at 90 °C; • after 22 hours, take 3 ml of each test solution from the surface, filter through a 0.45 µm Millipore filter and add to a stabilizing solution.

[4] = minimum phosphonate concentration for 100% calcium carbonate scale inhibition; 22 hours at 50°C, pH 9
Experimental: Testing method for calcium carbonate scale inhibition.
This is a static test to evaluate the efficiency of phosphonates in preventing calcium carbonate scale inhibition in industrial water treatment conditions. The test is carried out by determining the amount of CaCO3 that has precipitated after 22 hours at 50°C in a 50/50 mixture of cationic and anionic waters with the test phosphonates at 5 different concentrations. The amount of soluble Ca ions is analyzed by titration. Result indicates the % Ca scale inhibition provided by the 5 phosphonate concentrations. Reported results give the minimum phosphonate concentration for 100% calcium carbonate scale inhibition.
• Cationic and anionic waters are prepared at pH 9.

[5] = Peroxide stabilization procedure (perborate/TAED with iron, 40°C, thiosulphate titration); details: 35 ppm phosphonate
Experimental: Peroxide stabilization procedure
In a 250 ml glass bottle filled with 200ml deionised water stabilized at 40°C add the following ingredients: […], 35ppm of the tested bleach stabilizer, 0.53g of sodium bicarbonate, 0.42g of sodium carbonate, 0.14g of sodium perborate tetrahydrate and 0.06g of tetra-acetyl ethylene diamine (TAED). Dissolve these ingredients in the water by using an ultrasonic bath. After one minute of such treatment the bottle is transferred to the water bath set at 40°C and samples (10 ml each) are taken from the test bottle 2, 6,10,15,20 and 30 minutes thereafter. To these samples are added 10ml of 1M potassium iodide and 10ml of 20% aqueous sulphuric acid before immediate titration with a standardized 0.01N thiosulphate solution.

[6] = 100 ppm phosphonate in North Sea water
[7] = 1000 ppm phosphonate in North Sea water
[8] = 10000 ppm phosphonate in North Sea water
[9] = 50000 ppm phosphonate in North Sea water

SMILES | Ca Tolerance in % [1, 6] [%] | Ca Tolerance in % [1, 7] [%] | Ca Tolerance in % [1, 8] [%] | Ca Tolerance in % [1, 9] [%] | Thermal Stability at 140°C 1 week Decomposition in % [2] [%] | Ba Scale Inhibition: ppm phosphonate needed for 100% BaSO4 scale inhibition [3] [ppm full scale] | Ca Scale Inhibition [4] [ppm full scale] | % remaining act.oxygen ([5]; 0 min) [%] | % remaining act.oxygen ([5]; 2 min) [%] | % remaining act.oxygen ([5]; 6 min) [%] | % remaining act.oxygen ([5]; 10 min) [%] | % remaining act.oxygen ([5]; 15 min) [%] | % remaining act.oxygen ([5]; 20 min) [%] | % remaining act.oxygen ([5]; 30 min) [%]
O=P(O)(O)CN(CCCCC(CCCN(CP(=O)(O)O)CP(=O)(O)O)CN(CP(=O)(O)O)CP(=O)(O)O)CP(=O)(O)O (centres unmarked) [AMODHMPA, 4-Aminomethyl 1,8-octane diamine hexa (methylene phosphonic acid)] | 99 | 83 | 21 | 100 | 8.8 | 30 | – | – | – | – | – | – | – | –
O=P(O)(O)CN(CCN(CP(=O)(O)O)CP(=O)(O)O)CCN(CP(=O)(O)O)CP(=O)(O)O [Dequest 2066A, diethylene triaminopentamethylene phosphonate] | 100 | 89 | 24 | 100 | 24 | 15 | 2 | – | – | – | – | – | – | –
O=P([O-])(O)CN(CCN(CCN(CP(=O)(O)O)CP(=O)(O)O)CP(=O)(O)O)CP(=O)(O)O.[Na+] [Dequest 2066] | – | – | – | – | – | – | – | 100 | 100 | 99 | 97 | 95 | 94 | 90
O=P(O)(O)CN(CCO)CP(=O)(O)O [HEIBMPA, 2-Hydroxy ethyl imino bis (methylene phosphonic acid)] | 100 | 79 | 100 | 100 | 19 | 30 | – | – | – | – | – | – | – | –
